Assay results taken from article PMC8148378 (Chemical Science, 2019).
Converted amounts (≈) assume the structure as drawn.

How the values were obtained:
E. coli ΔtolC = experiment: MIC determination; type: cell-based; details: Escherichia coli, read-out: MIC E. coli ΔtolC
E. coli WT DSM-1116 = experiment: MIC determination; type: cell-based; details: Escherichia coli, DSM1116, read-out: MIC E. coli WT, DSM-1116
[1] = tested on: P. aeruginosa ΔmexAB (PA14ΔmexAB); experiment: MIC determination; type: cell-based; details: Pseudomonas aeruginosa, read-out: MIC P. aeruginosa ΔmexAB
P. aeruginosa WT PA14 = experiment: MIC determination; type: cell-based, Pseudomonas aeruginosa; details: for MIC: Pseudomonas aeruginosa, PA14, read-out: MIC P. aeruginosa WT, PA14
S. aureus ATCC29213 = experiment: MIC determination; type: cell-based; details: Staphylococcus aureus, ATCC29213, read-out: MIC S. aureus, ATCC29213
E. coli gyrase [2] = target: T1, E. coli gyrase (Escherichia coli, UniProt P0AES4); experiment: DNA gyrase supercoiling assay, method a; type: biochemical
T1 sequence (P0AES4 whole entry): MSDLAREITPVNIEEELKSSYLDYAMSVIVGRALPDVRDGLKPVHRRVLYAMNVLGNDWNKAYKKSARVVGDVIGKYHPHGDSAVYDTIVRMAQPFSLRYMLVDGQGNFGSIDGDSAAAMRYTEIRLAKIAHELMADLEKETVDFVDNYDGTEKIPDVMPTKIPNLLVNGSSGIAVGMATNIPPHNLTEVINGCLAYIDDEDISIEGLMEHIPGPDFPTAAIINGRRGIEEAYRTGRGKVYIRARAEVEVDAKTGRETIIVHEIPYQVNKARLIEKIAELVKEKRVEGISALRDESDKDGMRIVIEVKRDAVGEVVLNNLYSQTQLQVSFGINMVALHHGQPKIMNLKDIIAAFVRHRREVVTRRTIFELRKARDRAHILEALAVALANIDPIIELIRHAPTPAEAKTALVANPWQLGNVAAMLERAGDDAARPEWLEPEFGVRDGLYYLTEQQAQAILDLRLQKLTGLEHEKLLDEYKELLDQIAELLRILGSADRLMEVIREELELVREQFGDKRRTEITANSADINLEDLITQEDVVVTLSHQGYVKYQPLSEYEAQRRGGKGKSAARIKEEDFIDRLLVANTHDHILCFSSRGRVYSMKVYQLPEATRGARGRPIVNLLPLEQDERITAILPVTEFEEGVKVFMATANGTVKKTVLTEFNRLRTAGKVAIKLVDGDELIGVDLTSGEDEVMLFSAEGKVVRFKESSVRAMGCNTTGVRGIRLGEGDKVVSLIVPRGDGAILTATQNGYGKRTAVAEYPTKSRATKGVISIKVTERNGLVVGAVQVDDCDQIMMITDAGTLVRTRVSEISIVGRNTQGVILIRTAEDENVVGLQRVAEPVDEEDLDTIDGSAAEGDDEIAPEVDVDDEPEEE

[3] = type: physicochemical
E. coli gyrase [4] = target: T1, E. coli gyrase; experiment: DNA gyrase supercoiling assay, method b; type: biochemical; details: for fold decrease of gyrase inhibition: compared to 22
E. coli WT-3 = experiment: MIC determination, larger panel; type: cell-based; details: Escherichia coli, WT3, read-out: MIC E. coli WT-3
E. cloacae DSM-30054 = experiment: MIC determination, larger panel; type: cell-based; details: Enterobacter cloacae, DSM30054, read-out: MIC E. cloacae
K. pneumoniae DSM-30104 = experiment: MIC determination, larger panel; type: cell-based; details: Klebsiella pneumoniae, DSM30104, read-out: MIC K. pneumoniae
S. marcescens DSM-30121 = experiment: MIC determination, larger panel; type: cell-based; details: Serratia marcescens, DSM30121, read-out: MIC S. marcescens
P. mirabilis DSM-4479 = experiment: MIC determination, larger panel; type: cell-based; details: Proteus mirabilis, DSM4479, read-out: MIC P. mirabilis
E. aerogenes DSM-30053 = experiment: MIC determination, larger panel; type: cell-based, Enterobacter aerogenes; details: Klebsiella aerogenes, DSM30053, read-out: MIC E. aerogenes
[5] = tested on: P. aeruginosa ESBL 1 DSM-24600; experiment: MIC determination, larger panel; type: cell-based; details: Pseudomonas aeruginosa, DSM24600, read-out: MIC P. aeruginosa ESBL 1
[6] = tested on: P. aeruginosa ESBL 2 DSM-46316; experiment: MIC determination, larger panel; type: cell-based; details: Pseudomonas aeruginosa, DSM46316, read-out: MIC P. aeruginosa ESBL 2
A. baumannii DSM-30008 = experiment: MIC determination, larger panel; type: cell-based; details: Acinetobacter baumannii, DSM30008, read-out: MIC A. baumannii, DSM-30008
E. faecalis ATCC-29212 = experiment: MIC determination, larger panel; type: cell-based; details: Enterococcus faecalis, ATCC29212, read-out: MIC E. faecalis
P. dispersa = experiment: MIC against the AlbD producer; type: cell-based; details: Pantoea dispersa, read-out: MIC P. dispersa

Row | Structure (SMILES) | MIC (E. coli ΔtolC) | MIC (E. coli WT DSM-1116) | MIC [1] | MIC (P. aeruginosa WT PA14) | MIC (S. aureus ATCC29213) | MIC (E. coli WT-3) | also measured
1 | CC(C)Oc1c(NC(=O)c2ccc(NC(=O)[C@H](CC(N)=O)NC(=O)c3ccc(NC(=O)c4ccc([N+](=O)[O-])cc4)cc3)cc2)ccc(C(=O)Nc2ccc(C(=O)O)cc2)c1O [Compound 4] | 0.125 µg/mL (≈ 0.15 µM) | 1 µg/mL (≈ 1.2 µM) | 1 µg/mL (≈ 1.2 µM) | > 64 µg/mL | 1 µg/mL (≈ 1.2 µM) |  | MIC P. aeruginosa WT (P. aeruginosa WT PA14; PA14): >64 µg/mL; IC50 (E. coli gyrase [2]): 0.11 µM; pKa [3]: < 8
2 | CC(C)Oc1c(NC(=O)c2ccc(NC(=O)[C@H](CC(N)=O)NC(=O)c3ccc(NC(=O)c4ccccc4)cc3)cc2)ccc(C(=O)Nc2ccc(C(=O)O)cc2)c1O [Compound 15] |  | > 64 µg/mL |  |  |  |  | 
3 | CC(C)Oc1c(NC(=O)c2ccc(NC(=O)[C@H](CC(N)=O)NC(=O)c3ccc(NC(=O)c4ccc(C(F)(F)F)cc4)cc3)cc2)ccc(C(=O)Nc2ccc(C(=O)O)cc2)c1O [Compound 23] |  |  |  |  | 16 to 32 µg/mL (≈ 18.7 to 37.4 µM) |  | 
4 | CC(C)Oc1c(NC(=O)c2ccc(NC(=O)[C@H](CC(N)=O)NC(=O)c3ccc(NC(=O)c4ccc(NC(=O)c5ccc([N+](=O)[O-])cc5)cc4)cc3)cc2)ccc(C(=O)Nc2ccc(C(=O)O)cc2)c1O [Compound 24] |  |  |  |  |  |  | fold reduced inhibitory activity in the gyrase assay (E. coli gyrase [4]; compared to 4): 20 fold
5 | CC(C)Oc1c(NC(=O)c2ccc(NC(=O)[C@H](CC(N)=O)NC(=O)c3ccc(NC(=O)c4ccc(C#N)cn4)cc3)cc2)ccc(C(=O)Nc2ccc(C(=O)O)cc2)c1O [Compound 31] |  |  |  |  |  | 2 µg/mL (≈ 2.46 µM) | 
6 | CC(C)Oc1c(NC(=O)c2ccc(NC(=O)[C@H](CC(N)=O)NC(=O)c3ccc(NC(=O)c4ccc(C#N)s4)cc3)cc2)ccc(C(=O)Nc2ccc(C(=O)O)cc2)c1O [Compound 32] |  |  |  |  |  | 1 µg/mL (≈ 1.22 µM) | MIC (E. cloacae DSM-30054): > 64 µg/mL; MIC (K. pneumoniae DSM-30104): > 64 µg/mL; MIC (S. marcescens DSM-30121): > 64 µg/mL; MIC (P. mirabilis DSM-4479): > 64 µg/mL
7 | C/C(=C\c1ccc(O)cc1)C(=O)Nc1ccc(C(=O)N[C@@H](CC(N)=O)C(=O)Nc2ccc(C(=O)Nc3ccc(C(=O)Nc4ccc(C(=O)O)cc4)c(O)c3OC(C)C)cc2)cc1 [Compound 45] |  |  |  |  |  | 0.125 µg/mL (≈ 0.148 µM) | MIC (E. aerogenes DSM-30053): 1 µg/mL (≈ 1.19 µM); MIC (E. cloacae DSM-30054): > 64 µg/mL; MIC [5]: > 64 µg/mL; MIC [6]: 2 µg/mL (≈ 2.37 µM); MIC (K. pneumoniae DSM-30104): > 64 µg/mL; MIC (S. marcescens DSM-30121): 64 µg/mL (≈ 75.9 µM); MIC (P. mirabilis DSM-4479): 2 µg/mL (≈ 2.37 µM)
8 | C/C(=C\c1ccc(C#N)cc1)C(=O)Nc1ccc(C(=O)N[C@@H](CC(N)=O)C(=O)Nc2ccc(C(=O)Nc3ccc(C(=O)Nc4ccc(C(=O)O)cc4)c(O)c3OC(C)C)cc2)cc1 [Compound 46] |  |  |  |  |  | 0.125 µg/mL (≈ 0.147 µM) | MIC (A. baumannii DSM-30008): 0.06 µg/mL (≈ 0.0704 µM)
9 | CC(C)Oc1cc(C(=O)Nc2ccc(C(=O)O)cc2)ccc1NC(=O)c1ccc(NC(=O)[C@H](CC(N)=O)NC(=O)c2ccc(NC(=O)c3ccc([N+](=O)[O-])cc3)cc2)cc1 [Compound 52] | 0.06 µg/mL (≈ 0.0735 µM) | > 64 µg/mL | 1 µg/mL (≈ 1.23 µM) | > 64 µg/mL | > 64 µg/mL |  | 
10 | CC(C)COc1c(NC(=O)c2ccc(NC(=O)[C@H](CC(N)=O)NC(=O)c3ccc(NC(=O)c4ccc([N+](=O)[O-])cc4)cc3)cc2)ccc(C(=O)Nc2ccc(C(=O)O)cc2)c1O [Compound 53] | 2 µg/mL (≈ 2.36 µM) | > 64 µg/mL | > 64 µg/mL | > 64 µg/mL | 1 µg/mL (≈ 1.18 µM) |  | 
11 | Cn1cc(NC(=O)C(CC(N)=O)NC(=O)c2ccc(NC(=O)c3ccc(C#N)cc3)cc2)cc1-c1nc2ccc(C(=O)Nc3ccc(C(=O)O)cc3)c(O)c2[nH]1 (centres unmarked) [Compound 56] |  |  |  |  |  |  | IC50 (E. coli gyrase [2]): 10.9 µM; fold decrease of gyrase inhibition (E. coli gyrase [4]): approximately 100 fold
12 | CC(C)Oc1c(-n2cc(-c3ccc(NC(=O)C(CC(N)=O)NC(=O)c4ccc(NC(=O)c5ccc(C#N)cc5)cc4)cc3)nn2)ccc(C(=O)Nc2ccc(C(=O)O)cc2)c1O (centres unmarked) [Compound 61] |  |  |  |  |  | 16 µg/mL (≈ 19.1 µM) | fold decrease of gyrase inhibition (E. coli gyrase [4]): ca. 20 fold; MIC (E. faecalis ATCC-29212): 16 µg/mL (≈ 19.1 µM); MIC (A. baumannii DSM-30008): 8 µg/mL (≈ 9.57 µM); MIC (E. aerogenes DSM-30053): 1 µg/mL (≈ 1.2 µM); MIC (E. cloacae DSM-30054): > 64 µg/mL; MIC [5]: 16 µg/mL (≈ 19.1 µM); MIC [6]: 16 µg/mL (≈ 19.1 µM); MIC (K. pneumoniae DSM-30104): > 64 µg/mL; MIC (S. marcescens DSM-30121): > 64 µg/mL; MIC (P. mirabilis DSM-4479): 16 µg/mL (≈ 19.1 µM); MIC (P. dispersa): 1 µg/mL (≈ 1.2 µM)
13 | CC(C)Oc1c(NC(=O)c2ccc(NC(=O)[C@H](CC(N)=O)NC(=O)c3ccc(NC(=O)c4ccc(C#N)cc4)cc3)cc2)ccc(C(=O)O)c1O [Compound 67] |  |  |  |  |  |  | fold decrease of gyrase inhibition (E. coli gyrase [4]): more than 100 fold
14 | CC(C)Oc1c(NC(=O)c2ccc(NC(=O)c3ccc(NC(=O)[C@H](CC(N)=O)NC(=O)c4ccc(NC(=O)c5ccc([N+](=O)[O-])cc5)cc4)cc3)c(OC(C)C)c2O)ccc(C(=O)O)c1O [Compound 78] | 0.125 µg/mL (≈ 0.138 µM) | 0.5 µg/mL (≈ 0.552 µM) | 1 µg/mL (≈ 1.1 µM) | > 64 µg/mL | 0.05 µg/mL (≈ 0.0552 µM) |  | IC50 (E. coli gyrase [4]): 200 nM
15 | CC(C)Oc1c(NC(=O)c2ccc(NC(=O)c3ccc(NC(=O)[C@H](CC(N)=O)NC(=O)c4ccc(NC(=O)c5ccc(C#N)cc5)cc4)cc3)c(OC(C)C)c2O)ccc(C(=O)O)c1O [Compound 79] | ≤ 0.03 µg/mL | 0.25 µg/mL (≈ 0.282 µM) | 1 µg/mL (≈ 1.13 µM) | 2 µg/mL (≈ 2.26 µM) | ≤ 0.03 µg/mL |  | IC50 (E. coli gyrase [4]): 600 nM
16 | CC(C)Oc1c(NC(=O)c2ccc(NC(=O)c3ccc(NC(=O)[C@H](CC(N)=O)NC(=O)c4ccc(NC(=O)c5ccc(C#N)cn5)cc4)cc3)c(OC(C)C)c2O)ccc(C(=O)O)c1O [Compound 80] | ≤ 0.03 µg/mL | 0.06 µg/mL (≈ 0.0677 µM) | 0.5 µg/mL (≈ 0.564 µM) | > 64 µg/mL | ≤ 0.03 µg/mL | 0.5 µg/mL (≈ 0.564 µM) | MIC (E. faecalis ATCC-29212): ≤ 0.03 µg/mL; MIC (A. baumannii DSM-30008): 0.25 µg/mL (≈ 0.282 µM); MIC (E. aerogenes DSM-30053): 1 µg/mL (≈ 1.13 µM); MIC (E. cloacae DSM-30054): > 64 µg/mL; MIC [5]: > 64 µg/mL; MIC [6]: > 64 µg/mL; MIC (S. marcescens DSM-30121): > 64 µg/mL
17 | CC(C)Oc1c(NC(=O)c2ccc(NC(=O)c3ccc(NC(=O)[C@H](CC(N)=O)NC(=O)c4ccc(NC(=O)c5ccc(C#N)s5)cc4)cc3)c(OC(C)C)c2O)ccc(C(=O)O)c1O [Compound 81] | 0.06 µg/mL (≈ 0.0673 µM) | 0.125 µg/mL (≈ 0.14 µM) | 2 µg/mL (≈ 2.24 µM) | > 64 µg/mL | 0.06 µg/mL (≈ 0.0673 µM) | 0.5 µg/mL (≈ 0.561 µM) | MIC (E. faecalis ATCC-29212): ≤ 0.03 µg/mL; MIC (A. baumannii DSM-30008): 1 µg/mL (≈ 1.12 µM); MIC (E. aerogenes DSM-30053): 1 µg/mL (≈ 1.12 µM); MIC (E. cloacae DSM-30054): > 64 µg/mL; MIC [5]: > 64 µg/mL; MIC [6]: > 64 µg/mL; MIC (K. pneumoniae DSM-30104): 1 µg/mL (≈ 1.12 µM); MIC (S. marcescens DSM-30121): > 64 µg/mL; MIC (P. mirabilis DSM-4479): > 64 µg/mL
18 | C/C(=C\c1ccc(C#N)cc1)C(=O)Nc1ccc(C(=O)N[C@@H](CC(N)=O)C(=O)Nc2ccc(C(=O)Nc3ccc(C(=O)Nc4ccc(C(=O)O)c(O)c4OC(C)C)c(O)c3OC(C)C)cc2)cc1 [Compound 82] | ≤ 0.03 µg/mL | 0.125 µg/mL (≈ 0.135 µM) | 0.25 µg/mL (≈ 0.27 µM) | 1 µg/mL (≈ 1.08 µM) | 0.06 µg/mL (≈ 0.0648 µM) |  | IC50 (E. coli gyrase [4]): 200 nM
19 | COC(=O)c1ccc(NC(=O)c2ccc(NC(=O)c3ccc(NC(=O)[C@H](CC(N)=O)NC(=O)c4ccc(NC(=O)c5ccc([N+](=O)[O-])cc5)cc4)cc3)c(OC(C)C)c2)cc1 [Compound 129] | > 64 µg/mL | > 64 µg/mL | > 64 µg/mL | > 64 µg/mL | > 64 µg/mL |  | 
20 | O=C(O)c1cn(C2CC2)c2cc(N3CCNCC3)c(F)cc2c1=O [ciprofloxacin, reference compound] |  |  |  |  |  |  | MIC (E. faecalis ATCC-29212): 1 µg/mL (≈ 3.02 µM); MIC (A. baumannii DSM-30008): 0.32 µg/mL (≈ 0.966 µM); MIC [5]: 8 µg/mL (≈ 24.1 µM); MIC (P. mirabilis DSM-4479): 0.06 µg/mL (≈ 0.181 µM)
